Measurements as given in article PMC12190736, “Development and In Vitro Characterization of [^3H]GMC-058 as Radioligand for Imaging Parkinsonian-Related Proteinopathies” (Cells, 2025).
Like-named read-outs stand apart in the source and are kept apart here.

Tests used:
[1] = biological target: recombinant α-syn fibrils (Homo sapiens, UniProt P37840); assay: Radioligand binding displacement of [^3H]-α-syn-tool on α-syn fibrils; conditions: 5 nM [^3H]-α-syn-tool
Procedure: Compound affinity for α-syn fibrils was measured by means of radioligand binding displacement experiments of an AbbVie tool radioligand with high affinity for α-syn fibrils ([^3H]-α-syn-tool). The aggregation of α-syn monomers into fibrils was obtained as described by Bousset et al.. In brief, monomers (5 mg/mL, prepared in AbbVie (Worcester, MA, USA) were incubated in 150 mM of KCl and 50 mM of Tris-HCl (pH 7.5) for 7 days at 37 °C, under constant shaking conditions (650 rpm, Eppendorf Thermomixer C, Eppendorf, Hamburg, Germany). After incubation, the fibrils were harvested via ultra-centrifugation (40,100× g, 30 min, 20 °C), resuspended in buffer, sonicated (40% amplitude, 10 s pulse on, 5 s pulse off) for 4.5 min at 20 °C, divided into aliquots (5.5 mg/mL), and stored at −80 °C until the day of the experiment. The characterization of the fibrils included protein content determination (BCA method) and an analysis of Proteinase K degradation pattern.
On the day of the experiment, α-syn fibrils were thawed for a few minutes at 37 °C, diluted in Dulbecco’s Phosphate Buffered Saline (PBS) without calcium and magnesium, pH = 7.4 (DPBS) plus 0.1% bovine serum albumin (BSA), and incubated (at the final fibrils concentration of 2.5 µg/mL) for 60 min, at room temperature (RT), with 5 nM [^3H]-α-syn-tool, in the absence or presence of different concentrations of non-radiolabeled compounds. Bound radioligand was separated from free radioligand via rapid filtration and washings with cold DPBS, using a Unifilter-96 GF/B filter plate (PerkinElmer, Rodgau, Germany) presoaked in 0.3% polyethylenimmine (PEI) and a Unifilter Cell Harvester (PerkinElmer, Rodgau, Germany). Plates were air-dried, and the scintillation liquid (Betaplate Scint, PerkinElmer) was added and counted using a MicroBeta2 2450 (Perkinelmer, Rodgau, Germany). Non-specific binding (NSB) was defined as the binding in the presence of 10 µM unlabeled α-syn tool. Data fitting and the constant of inhibition (Ki) calculation was performed using the software platform from Dotmatics (Boston, MA, USA).

tau fibrils = tau fibrils (Homo sapiens, UniProt P10636); assay: [^3H]NFT-355 binding displacement on AD brain homogenates; conditions: AD brain homogenate, 0.5 nM [^3H]NFT-355
Procedure: (§1) Compounds’ affinity for tau and Aβ fibrils was measured by means of radioligand binding displacement experiments on AD brain homogenates, using [^3H]NFT-355 [8] (AbbVie, North Chicago, IL, USA) and [^3H]Pittsburg Compound-B (PiB; Novandi Chemistry AB, Södertälje, Sweden) to label tau and Aβ aggregates, respectively. Flash-frozen tissue from the frontal cerebral cortex of an AD (Braak stage V) brain was purchased from Analytical Biological Services Inc. (ABS; Wilmington, DE, USA), homogenized in DPBS, divided into aliquots (10 mg/mL), and stored at −80 °C until the day of the experiment.
(§2) On the day of the experiment, the brain homogenate was brought to RT, diluted in DPBS plus 0.1% BSA and incubated for 90 min, at RT, with 0.5 nM [^3H]NFT-355 or 1 nM [^3H]PiB, in the absence or presence of different concentrations of non-radiolabeled compounds. Bound radioligand was separated from free radioligand via rapid filtration and washings with cold DPBS, using a Unifilter-96 GF/B filter plate (presoaked in 0.3% PEI) and a Unifilter Cell Harvester (PerkinElmer). Plates were air-dried, and the scintillation liquid (Betaplate Scint, PerkinElmer) was added and counted using a MicroBeta2 2450. NSB was defined as the binding in the presence of 10 µM T808 [10] (AbbVie Germany) and 10 µM PiB for [^3H]NFT-355 and [^3H]PiB, respectively. Data fitting was performed using the software platform from Dotmatics (Boston, MA, USA).

Aβ fibrils = Aβ fibrils (Homo sapiens, UniProt P05067); assay: [^3H]PiB binding displacement on AD brain homogenates; conditions: AD brain homogenate, 1 nM [^3H]PiB
Procedure: as §1, §2

[2] = system: fresh-frozen human brain sections; assay: Autoradiography on fresh-frozen brain tissue sections; format: binding; conditions: for NSB: 5 µM GMC044; for NSB / Total Minus NSB / Total binding: gray matter of cingulate cortex, control C03; for Binding displaced by GMC-044: 5 µM GMC-044, control cingulate cortex tissue; for Binding in control tissue: cingulate cortex of healthy controls
Procedure: Selections of frozen human sections (described in Table 2 and Table 3) were used for binding autoradiography. Sections were first pre-incubated for 20 min in binding buffer [50 mM Tris-HCl (pH 7.4), 120 mM NaCl, 5 mM KCl, 2 mM CaCl2, 1 mM MgCl2, and 0.1% BSA] and then incubated with [^3H]GMC-058 (specific activity 22 Ci/mmol); [^3H]GMC-073 (specific activity 23.4 Ci/mmol); or […] in binding buffer for 180 min at RT. In the pilot autoradiography experiment (Figure A1). [^3H]GMC-058 was tested at 25 and 50 nM, while [^3H]GMC-073 and [^3H]GMC-098 were each tested at 10 and 20 nM. For all other autoradiography in fresh-frozen tissue sections, 25 nM [^3H]GMC-058 was used. To determine NSB, adjacent brain sections were incubated with [^3H]-tracer mixed with 5 μM of unlabeled GMC-044. The binding reaction was stopped with two 10 min washes in washing buffer [50 mM Tris-HCl (pH 7.4) at 4 °C] and a brief dip in cold distilled water. Slides were allowed to air-dry before being placed under storage phosphor screens (Fujifilm Plate BAS-TR2025, Fujifilm, Tokyo, Japan) in imaging cassettes for 90 h together with ART0123C and ART0123B tritium standards on glass slides (American Radiolabeled Chemicals Inc., St. Louis, MO, USA). Storage phosphor screens were scanned using an Amersham Typhoon FLA-9500 phosphor imaging scanner (Cytiva, Marlborough, MA, USA), and the resulting images were analyzed using Multi Gauge 3.2 phosphor imager software (Fujifilm, Tokyo, Japan) for ROI delimitation, density calibration, and quantification. Quantitative binding data from duplicates of the total, and NSB were plotted and analyzed using graphPad Prism v10 (GraphPad Software, Boston, MA, USA). Specific binding was determined by subtracting the non-specific signal from the total signal. The toluidine blue staining of adjacent sections was used to obtain anatomical references for white- and gray-matter ROI selection. Care was taken not to include artifact signals in the ROIs analyzed. These artifacts were identified as randomly placed punctate signals appearing in both total and NSB images, and they often coincided with small folds or tears in the tissue sections.

α-syn = conditions: cited from earlier work
pTau = conditions: AD; read-out: IC50 or KD pTau; cited from earlier work
Aβ = conditions: AD; read-out: IC50 or KD Aβ; cited from earlier work

tau fibrils, sequence (P10636 623-708 limits assumed): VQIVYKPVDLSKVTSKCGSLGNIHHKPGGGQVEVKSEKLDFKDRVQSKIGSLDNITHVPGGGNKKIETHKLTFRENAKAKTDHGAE
Aβ fibrils, sequence (P05067 672-711 limits assumed): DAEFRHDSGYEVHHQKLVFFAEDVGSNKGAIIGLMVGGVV

## COc1ccccc1NC(=O)Nc1ccc(N2CCN(c3ccc(F)cc3)CC2)c(C#N)c1 [GMC-073]
[1]
  Ki: 8 nM
Tau fibrils
  Ki: 248 nM
Aβ fibrils
  Ki: 2630 nM

## COc1ccc(-c2ccc(NC(=O)N3CCN(c4ccc(OC)cc4)CC3)cc2C#N)cc1 [GMC096]
[1]
  Ki: 6.5 nM
Tau fibrils
  Ki: 2510 nM
Aβ fibrils
  Ki: 51 nM

## COc1ccc(-c2ccc(NC(=O)N3CCN(c4ccccc4)CC3)cc2C#N)cc1 [GMC-098]
[1]
  Ki: 9.7 nM
Tau fibrils
  Ki: 805 nM
Aβ fibrils
  Ki: 226 nM

## COc1ccc(-c2ccc(NC(=O)N3CCN(c4ccc(C#N)cn4)CC3)cc2C#N)cc1 [GMC095]
[1]
  Ki: 14.5 nM
Tau fibrils
  Ki: 2510 nM
Aβ fibrils
  Ki: 2630 nM

## COc1ccccc1NC(=O)Nc1ccc(N2CCN(c3ccccn3)CC2)c(C#N)c1 [GMC071]
[1]
  Ki: 14.2 nM
Tau fibrils
  Ki: 86 nM
Aβ fibrils
  Ki: 8180 nM

## [3H]c1ccc(N2CCN(C(=O)Nc3ccc(-c4ccc(OC)cc4)c(C#N)c3)CC2)cc1 [[^3H]GMC-098, N-(2-cyano-4′-methoxy-[1,1′-biphenyl]-4-yl)-4-([4-3H]phenyl)piperazine-1-carboxamide]
[2]; 10 nM radioligand
  NSB: 1878 ± 74.1 fmol/mg tissue equivalent
  Total Minus NSB: 827 fmol/mg
  Total binding: 2705 ± 62.2 fmol/mg tissue equivalent
[2]; 20 nM radioligand
  NSB: 2336 ± 48.5 fmol/mg tissue equivalent
  Total Minus NSB: 2810 fmol/mg
  Total binding: 5146 ± 386.2 fmol/mg tissue equivalent
[2]
  Binding displaced by GMC-044: approximately 50%
  Binding in control tissue: clear binding

## COc1cccc(CC(=O)Nc2ccc(N3CCN(c4ccc(C#N)cn4)CC3)cc2)c1 [GMC024]
[1]
  Ki: 25.3 nM
Tau fibrils
  Ki: 68 nM
Aβ fibrils
  Ki: 81 nM

## CNc1cnc(C#C/C=C/c2nc3ccc(OCC(O)CF)cc3s2)cn1 (centres unmarked) [[^18F]SPAL-T-06]
α-syn; MSA, read-out: IC50 or KD α-syn
  IC50: 2.5 nM
α-syn; brain homogenates from DLB or MSA cases, homologous competition binding studies, read-out: IC50
  IC50: 2 to 3 nM

## COc1ccccc1CC(=O)Nc1ccc(N2CCN(c3ccc(F)cc3)CC2)cc1C#N [GMC086]
[1]
  Ki: 15.2 nM
Tau fibrils
  Ki: 26 nM
Aβ fibrils
  Ki: 809 nM

## C[C@@H](C(=O)Nc1ccc(N2CCN(c3ccc(C#N)cn3)CC2)cc1)c1ccccc1 [GMC044]
[1]
  Ki: 25.2 nM
Tau fibrils
  Ki: 692 nM
Aβ fibrils
  Ki: 3440 nM

## O=C1c2cn(-c3ccc(N4CC[C@@H](F)C4)nc3)nc2CN1c1cccnc1 [[^18F]ACI-12589]
α-syn; MSA, read-out: IC50 or KD α-syn (converted)
  Kd: 28 nM
α-syn; PD and MSA tissue, read-out: KD
  Kd: ~30 nM
α-syn; sporadic PD, read-out: IC50 or KD α-syn (converted)
  Kd: 33.5 ± 17.4 nM
pTau
  Kd: 317 nM
Aβ
  Kd: 317 nM

## COc1ccccc1CC(=O)Nc1ccc(N2CCN(c3ccc(C#N)cn3)CC2)cc1 [GMC023]
[1]
  Ki: 21.2 nM
Tau fibrils
  Ki: 44 nM
Aβ fibrils
  Ki: 151 nM

## COc1ccc(CC(=O)Nc2ccc(N3CCN(c4ccc(C#N)cn4)CC3)cc2)cc1 [GMC025]
[1]
  Ki: 29.7 nM
Tau fibrils
  Ki: 50 nM
Aβ fibrils
  Ki: 141 nM

## COc1ccc(N2CCN(c3ccc(NC(=O)C(C)(C)C)cc3)CC2)cc1 [GMC-058]
[1]
  Ki: 22.5 nM
Tau fibrils
  Ki: 1320 nM
Aβ fibrils
  Ki: 1490 nM

## COc1ccccc1NC(=O)Nc1ccc(N2CCN(c3ccccn3)CC2)cc1 [GMC070]
[1]
  Ki: 6.8 nM
Tau fibrils
  Ki: 90 nM
Aβ fibrils
  Ki: 64 nM

## COc1ccc(/C=C/c2ccc(N3CCN(c4ccc(C#N)cn4)CC3)cc2)cn1 [GMC013_FR-1]
[1]
  Ki: 25.5 nM
Tau fibrils
  Ki: 151 nM
Aβ fibrils
  Ki: 63 nM

## [3H]c1cccc(NC(=O)Nc2ccc(N3CCN(c4ccc(F)cc4)CC3)c(C#N)c2)c1OC [[^3H]GMC-073, 1-(3-cyano-4-(4-(4-fluorophenyl)piperazin-1-yl)phenyl)-3-(2-methoxy-[3-3H]-phenyl)urea]
[2]; 10 nM radioligand
  NSB: 346.9 ± 14.5 fmol/mg tissue equivalent
  Total Minus NSB: 318 fmol/mg
  Total binding: 664.6 ± 24.3 fmol/mg tissue equivalent
[2]; 20 nM radioligand
  NSB: 1022 ± 45 fmol/mg tissue equivalent
  Total Minus NSB: 848 fmol/mg
  Total binding: 1870 ± 100.2 fmol/mg tissue equivalent
[2]
  Binding displaced by GMC-044: approximately 50%
  Binding in control tissue: clear binding

## O=C(Nc1ccc(N2CCN(Cc3ccc(Cl)c(Cl)c3)CC2)cc1)c1cnccn1 [GMC021]
[1]
  Ki: 22.2 nM
Tau fibrils
  Ki: 2510 nM
Aβ fibrils
  Ki: 889 nM

## COc1ccc(-c2ccc(NC(=O)N3CCN(c4ccccn4)CC3)cc2C#N)cc1 [GMC015]
[1]
  Ki: 28.3 nM
Tau fibrils
  Ki: 761 nM
Aβ fibrils
  Ki: 294 nM

## COc1ccccc1CC(=O)Nc1ccc(N2CCN(c3ccc(F)cc3)CC2)nc1 [GMC079]
[1]
  Ki: 23.9 nM
Tau fibrils
  Ki: 2510 nM
Aβ fibrils
  Ki: 404 nM
